Reference: patent US6350739B1, “Methods of prevention and treatment of ischemic damage” (University of Florida Resarch Foundation, Inc., priority 1999, dated 2002)
Entries after “also recorded” stand apart in the source; their conditions may differ. Marks after values point to notes of the source that are not given here.

Columns and labels:
[1] = tested on: ischemia induced by middle cerebral artery occlusion (MCAO); assay: Pretreatment with estrogen compound before middle cerebral artery occlusion (MCAO) in ovariectomized rats; format: in vivo, rat; set-up: % Survival: concentration or dose not given beside the values
Procedure: Rats were used as experimental models to test the effects of estrogen compounds in protecting against ischemic damage. To remove the naturally occurring source of estrogen, ovariectomies were performed prior to induction of ischemia.
Subsequent to the ovariectomy, rats were treated with an estrogen compound either by subcutaneous delivery with Silastic® tubes 24 hours prior to the MCA occlusion or by intravenous delivery as follows:
Subcutaneous sustained delivery: 17β- or 17α-estradiol was packed into 5 mm long Silastic® tubes (Dow-Corning, Midland, Mich.) according to the method of Mohammed et al. 1985 Ann. Neurol 18, 705-711. Sham (empty) tubes were similarly prepared as estrogen negative controls. […]
The control was administered HPCD only. The chemical delivery system is formulated so that the estrogen is slowly released from the carrier.
At 7 to 8 days after ovariectomy, a method for occluding the […] was applied to the rat using modifications of the methods of Longa et al. (1989) Stroke, vol. 20, 84-91; and Nagasawa et al. (1989) Stroke, vol.20, 1037-1043, with certain modifications, as described herein.
Animals were anesthetized by ip injection with ketamine (60 mg/kg) and xylazine (10 mg/kg). Rectal temperature was monitored and maintained between 36.5 and 37.0 C with a heat lamp throughout the entire procedure. The left carotid artery was exposed through a midline cervical incision. The left sternohyloid, sternomastoid, digastric (posterior belly) and the omohyloid muscles were divided and retracted. Part of the greater horn of the hyloid bone was cut to facilitate exposure of the distal external carotid artery (ECA). The common carotid artery (CCA), ECA, and internal carotid artery (ICA) were dissected away from adjacent nerves. The distal ECA and its branches, the CCA, and the pterygopalatine arteries were coagulated completely. A microvascular clip was placed on the ICA near skull base. A 2.5 cm length of 3-0 monofilament nylon suture was heated to create a globule for easy movement and blocking of the lumen of the vessel. This was introduced into the ECA lumen through the puncture. The suture was gently advanced to the distal ICA until it reached the clipped position. The microvascular clip was then removed and the suture was inserted until resistance was felt. The distance between the CCA bifurcation and the resistive point was about 1.8 cm. This operative procedure was completed within 10 minutes without bleeding. After the prescribed occlusion tine (40 minutes), the suture was withdrawn from the ICA and the distal ICA was immediately cauterized.
Animals that survived until the scheduled sacrifice time were sacrificed by decapitation. Scheduled post-ischemic sacrifices occurred at 6 hours, 24 hours and 1 week post MCAO (Table 1). For the 6-hour sample, animals were monitored continuously. […] Similarly, animals scheduled for the 1 week post-ischemic sacrifice were monitored for the first 4 hours after surgery and then daily thereafter.
The brains were isolated from the decapitated heads, sliced into 3 or 5 coronal tissue slices as described below and then stained with hematoxylin and eosin to determine the extent of the ischemic area Stained slices were photographed and subsequently imaged using a Macintosh Cadre 800 computer, equipped with an Image 1.47 software program for the assessment of the cross-sectional area of the ischemic lesion. These images and the calculated area of ischemic damage were stored in the program for later retrieval and data reduction. The significance of differences in mortality among the different treatment groups was determined using Chi-Square analysis.
Ovariectomized rats were treated with 5 mm Silastic® tubes containing 17α-estradiol at 24 hours prior to MCAO. At 24 hours after the MCAO, the animals were sacrificed and the brains extracted.

[2] = tested on: primary rat brain capillary endothelial cells (BCEC); assay: Brain capillary endothelial cell mortality under hypoglycemia (Trypan blue); format: cell-based; settings: 2 nM
Procedure: Neurochemistry vol. 25, 715-717, 1975, incorporated herein by reference. […] The glucose concentration of the culture media was then adjusted from 20 mg % to 200 mg % by adding appropriate amount of D-(+)-glucose to the glucose-free media and monitored by Glucose and L-Lactate Analyzer (YSI model 2300 STAT plus, YSI, Inc., Yellow Springs, Ohio). The hypoglycemic cultures were maintained for 24 hours or 48 hours prior to staining with Trypan blue. Cell mortality was counted using Trypan blue staining method. Cell death percentage was calculated as dead cell/alive cell×100%. Statistical methods used included two-way analysis of variance, applied to determine the significance of the difference among the experimental groups. Kruskal-Wallis nonparametric analysis was used for data presented as percentage. […] P<0.05 was considered significant.

[3] = tested on: primary rat brain capillary endothelial cells (BCEC); assay: Brain capillary endothelial cell mortality under combined anoxia and hypoglycemia; format: cell-based; settings: 2 nM; 100 mg % glucose and 2 hours anoxia
Procedure: (§1) Primary rat brain capillary endothelial cells (BCEC) cultures were prepared following the method of Goldstein, J. Neurochemistry vol.
(§2) Nitrogen gas was influxed to replace the oxygen inside the chamber. The chamber was sealed and placed in the incubator for four hours for nonhypoglycemic cultures and 2 hours for hypoglycemic cultures.

[4] = tested on: ischemia induced by middle cerebral artery occlusion (MCAO); assay: Post-treatment with E2-CDS after onset of MCAO in ovariectomized rats; format: in vivo, rat
Procedure: At 7 to 8 days after ovariectomy, a method for occluding the middle carotid artery was applied to the rat using modifications of the methods of Longa et al. (1989) Stroke, vol.
Animals were anesthetized by ip injection with ketamine (60 mg/kg) and xylazine (10 mg/kg). Rectal temperature was monitored and maintained between 36.5 and 37.0 C with a heat lamp throughout the entire procedure. The left carotid artery was exposed through a midline cervical incision. The left sternohyloid, sternomastoid, digastric (posterior belly) and the omohyloid muscles were divided and retracted. Part of the greater horn of the hyloid bone was cut to facilitate exposure of the distal external carotid artery (ECA). The common carotid artery (CCA), ECA, and internal carotid artery (ICA) were dissected away from adjacent nerves. The distal ECA and its branches, the CCA, and the pterygopalatine arteries were coagulated completely. A microvascular clip was placed on the ICA near skull base. A 2.5 cm length of 3-0 monofilament nylon suture was heated to create a globule for easy movement and blocking of the lumen of the vessel. This was introduced into the ECA lumen through the puncture. The suture was gently advanced to the distal ICA until it reached the clipped position. The microvascular clip was then removed and the suture was inserted until resistance was felt. […]

[5] = tested on: primary rat brain capillary endothelial cells (BCEC); assay: Brain capillary endothelial cell mortality under anoxia (Trypan blue); format: cell-based; settings: 2 nM, 200 mg % glucose
Procedure: as §1, §2

[6] = tested on: middle cerebral artery (MCA) occlusion; assay: Pretreatment with ent-17β-estradiol or 17β-estradiol sc in oil before MCA occlusion; format: in vivo, Sprague-Dawley female rats; settings: for infarct area (mean±SEM): 100 μg/kg sc in oil 2 hours prior to 60 minute MCA occlusion, 24 hours reperfusion, vehicle 13.3±2.0
Procedure: Sprague-Dawley female rats ([…] body weight) were purchased from Charles River Laboratories, Inc. (Wilmington, Mass.). They were housed in pairs in hanging, stainless steel cage in a temperature controlled room (25° C.) with daily light cycle (light on 0700 to 1900 h daily) for a minimum of 3 days before surgery. All rats had free access to Purina Rat Chow and tap water. All procedures performed on animals were reviewed and approved by the Institutional Animal Care and Use Committee of the University of Florida before initiation of the study. Animals were ovariectomized at 1 week prior to middle cerebral artery (MCA) occlusion.
MCAO was achieved according to the methods described previously by us. Briefly, following administration of anesthetics of ketamine (60 mg/kg, ip) and xylazine (10 mg/kg, ip), the common carotid artery […] on the left side were exposed through a midline cervical incision and then gently dissected away from adjacent nerves. A 3-0 monofilament nylon suture was introduced into the left […] and gently advanced to the distal ICA until resistance was felt where the suture passed the bifurcation of the MCA and anterior cerebral artery (ACA). The thread was left in place for 60 minutes after which time re-perfusion was initiated. Rectal temperature was monitored and maintained between 36.5 and 37.0° C. during the entire stroke procedure. Each group of animals was decapitated after 24 hours of reperfusion. The brain was removed and placed in a metallic brain matrix for tissue slicing immediately after sacrifice. Five slices were made at […] posterior to the olfactory bulb. The slices were incubated for 30 minutes in a 2% solution of 2,3,5-triphenyltetrazolium chloride (ITC) in physiological saline at 37° C. and then were fixed in 10% formalin. The stained slices were photographed and subsequently measured for the surface area of the slices and the ischemic lesion area. Ischemic lesion volume was calculated as by the sums of the areas of ischemic lesion across the five slices divided by the total cross sectional area of these five brain slices.

[7] = tested on: ischemia induced by middle cerebral artery occlusion (MCAO); assay: Post-treatment at 0.5, 1, 2, 3 and 4 hours after MCAO, ischemic lesion volume; format: in vivo, rat; settings: iv 100 μg/kg HPCD-complexed plus Silastic pellet at 0.5, 1, 2, or 3 hours post-occlusion; 48 hours after MCAO
Procedure: Ovariectomized, non-treated animals (OVX) and non-ovariectomized, non-treated animals (INT) were used as controls (n=12 and n=6, respectively). At 48 hours following MCAO, animals were sacrificed and ischemic lesion volume was determined by obtaining brain sections as previously described and staining with TTC.

[8] = 5 mm Silastic tube 24 hours prior to MCAO, sacrifice 24 hours after MCAO, vs sham
[9] = Total of all planned sacrifice times
[10] = planned sacrifice 1 Day after MCAO
[11] = planned sacrifice 1 Week after MCAO
[12] = planned sacrifice 6 hrs after MCAO

C[C@]12CC[C@@H]3c4ccc(O)cc4CC[C@H]3[C@@H]1CC[C@H]2O [17α-estradiol]
reduction of ischemic area, slice C [1, 8]: 55%
reduction of ischemic area, slice D [1, 8]: 66%
reduction of ischemic area, slice E [1, 8]: 81%
protective effect in tissue slices A-E (FIG. 3) ([1]; sustained subcutaneous delivery initiated 24 hours prior to ischemic event): significant protective effect

C[C@]12CC[C@@H]3c4ccc(O)cc4CC[C@H]3[C@@H]1CC[C@@H]2O [17β-estradiol]
cell loss saved vs control ([2]; medium glucose 20 mg %): 23. %
cell loss saved vs control ([2]; medium glucose 40 mg %): 28.4%
cell loss saved vs control ([2]; medium glucose 100 mg %): 35.9%
difference in percent cell death with and without estrogen ([2]; normal glucose 200 mg %): Little difference
protection of BCEC from cumulative effect of hypoglycemia and anoxia [3]: effective in protecting cultured BCEC
reduction of ischemic lesion size of the whole coronal section, region C ([1]; 10 μg/kg sc injection two hours prior to MCAO, sacrifice at 24 hours, 9 mm caudal to olfactory bulb): 46.3%
reduction of ischemic lesion size of the whole coronal section, region D ([1]; 10 μg/kg sc injection two hours prior to MCAO, sacrifice at 24 hours, 11 mm caudal to olfactory bulb): 44.1%
Number of Animals Alive [1, 9]: 14
Number of Animals Dead [1, 9]: 4
% Survival ([1]; Total of all planned sacrifice times, pretreatment 24 hours prior to MCAO): 78%
% Survival ([1]; Total of all planned sacrifice times, pretreatment 24 hours prior to MCAO, listed as E2 Implant): 78* %
Number of Animals Alive [1, 10]: 8
Number of Animals Dead [1, 10]: 0
% Survival ([1]; planned sacrifice 1 Day after MCAO, pretreatment 24 hours prior to MCAO): 100* %
Number of Animals Alive [1, 11]: 3
Number of Animals Dead [1, 11]: 1
% Survival ([1]; planned sacrifice 1 Week after MCAO, pretreatment 24 hours prior to MCAO): 75* %
Number of Animals Alive [1, 12]: 3
Number of Animals Dead [1, 12]: 3
% Survival ([1]; planned sacrifice 6 hrs after MCAO, pretreatment 24 hours prior to MCAO): 50%
ischemic lesion, percent of cross-sectional area of brain sections ([1]; pretreatment 24 hours prior to MCAO, 3 brain slices, sacrifice 1 day or 1 week, sham 25.6±5.7%): 9.8±4.0%
mortality ([1]; pretreatment of ovariectomized rats before MCAO, untreated 65%): 22%
protective effect in tissue slices A-D (FIG. 2) ([1]; subcutaneous injection two hours prior to ischemic event): significant protective effect
reduction of ischemic area ([4]; administered 40 minutes after MCAO, range over slices): 45-90%
reduction of ischemic area (area under the ischemic curve) ([4]; administered 90 minutes after MCAO): 31%
reduction of cell death ([5]; 1 hour anoxic insult): 28.4%
reduction of cell death ([5]; 4 hour anoxic insult): 18.4%
infarct area (mean±SEM) [6]: 5.3±1.6
reduction of infarct ([6]; 100 μg/kg sc in oil 2 hours prior to MCA occlusion, vs vehicle): 60%
protection, ischemic lesion volume [7]: significant protection

C[C@@]12CC[C@H]3c4ccc(O)cc4CC[C@@H]3[C@H]1CC[C@H]2O [ent-17β-estradiol, (8α,9β,13α,14β,17α)-estra-1,3,5(10)-triene-3,17-diol]
effectiveness in reducing percent lesion volume compared with 17β-estradiol ([6]; 100 μg/kg sc in oil): as effective in reducing the percent lesion volume as 17β-estradiol; also recorded: as effective a therapeutic agent as 17β-estradiol
infarct area (mean±SEM) [6]: 5.3±1.7
